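96-well plates; 48 h exposure; 5 concentrations. Endpoints by linear interpolation between flanking doses. Not reached: highest tested concentration assigned. GI50 marks 50% less growth.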 Activity calls are given as the source filed them. Rule as the data show it: active = GI50 up to about 1.1 µM and inactive = higher.
Legend:
Experiment in all cases: DTP human tumour cell line panel, 48 h
HCC 2998 = system: HCC 2998
RXF 393 = system: RXF 393
HL-60 = system: HL-60
SNB-19 = system: SNB-19
RXF 631 = system: RXF 631
SW-620 = system: SW-620
A498 = system: A498
IGROV-1 = system: IGROV-1
SN12C = system: SN12C
U-251 = system: U-251
SK-MEL-2 = system: SK-MEL-2
LOX IMVI = system: LOX IMVI
KM-20L2 = system: KM-20L2
UACC-257 = system: UACC-257
HOP-92 = system: HOP-92
M14 = system: M14
HOP-62 = system: HOP-62
K562 = system: K562
OVCAR-3 = system: OVCAR-3
A549 = system: A549
EKVX = system: EKVX
SK-MEL-28 = system: SK-MEL-28
NCI-H460 = system: NCI-H460
M19-MEL = system: M19-MEL
OVCAR-4 = system: OVCAR-4
CAKI-1 = system: CAKI-1
HT-29 = system: HT-29
SNB-75 = system: SNB-75
SF-539 = system: SF-539
HOP-18 = system: HOP-18
XF498 = system: XF498
DLD-1 = system: DLD-1
KM12 = system: KM12
SF-295 = system: SF-295
NCI-H226 = system: NCI-H226
DMS-114 = system: DMS-114
MOLT-4 = system: MOLT-4
ACHN = system: ACHN
786-0 = system: 786-0
NCI-H23 = system: NCI-H23
Malme-3M = system: Malme-3M
SF-268 = system: SF-268
UO-31 = system: UO-31
SNB-78 = system: SNB-78
TK-10 = system: TK-10
RPMI-8226 = system: RPMI-8226
DMS-273 = system: DMS-273
UACC-62 = system: UACC-62
HCT-116 = system: HCT-116
SK-MEL-5 = system: SK-MEL-5
LXFL 529 = system: LXFL 529
OVCAR-5 = system: OVCAR-5
OVCAR-8 = system: OVCAR-8
HCT-15 = system: HCT-15
COLO 205 = system: COLO 205
SK-OV-3 = system: SK-OV-3
NCI-H522 = system: NCI-H522
CCRF-CEM = system: CCRF-CEM
SR = system: SR

## CC(C)=Cc1cc(C(=O)Nc2ccc(Cl)c(Cl)c2)nc(N)n1
HCC 2998
  GI50: > 100 µM (inactive)
RXF 393
  GI50: > 100 µM (inactive)
HL-60
  GI50: > 100 µM (inactive)
SNB-19
  GI50: > 100 µM (inactive)
RXF 631
  GI50: > 100 µM (inactive)
SW-620
  GI50: > 100 µM (inactive)
A498
  GI50: > 100 µM (inactive)
IGROV-1
  GI50: > 100 µM (inactive)
SN12C
  GI50: > 100 µM (inactive)
U-251
  GI50: > 100 µM (inactive)
SK-MEL-2
  GI50: > 100 µM (inactive)
LOX IMVI
  GI50: > 100 µM (inactive)
KM-20L2
  GI50: > 100 µM (inactive)
UACC-257
  GI50: > 100 µM (inactive)
HOP-92
  GI50: > 100 µM (inactive)
M14
  GI50: > 100 µM (inactive)
HOP-62
  GI50: > 100 µM (inactive)
K562
  GI50: > 100 µM (inactive)
OVCAR-3
  GI50: > 100 µM (inactive)
A549
  GI50: > 100 µM (inactive)
EKVX
  GI50: > 100 µM (inactive)
SK-MEL-28
  GI50: > 100 µM (inactive)
NCI-H460
  GI50: > 100 µM (inactive)
M19-MEL
  GI50: > 100 µM (inactive)
OVCAR-4
  GI50: > 100 µM (inactive)
CAKI-1
  GI50: > 100 µM (inactive)
HT-29
  GI50: > 100 µM (inactive)
SNB-75
  GI50: > 100 µM (inactive)
SF-539
  GI50: > 100 µM (inactive)
HOP-18
  GI50: 78.3 µM (inactive)
XF498
  GI50: > 100 µM (inactive)
DLD-1
  GI50: > 100 µM (inactive)
KM12
  GI50: > 100 µM (inactive)
SF-295
  GI50: > 100 µM (inactive)
NCI-H226
  GI50: > 100 µM (inactive)
DMS-114
  GI50: > 100 µM (inactive)
MOLT-4
  GI50: > 100 µM (inactive)
ACHN
  GI50: > 100 µM (inactive)
786-0
  GI50: > 100 µM (inactive)
NCI-H23
  GI50: > 100 µM (inactive)
Malme-3M
  GI50: > 100 µM (inactive)
SF-268
  GI50: > 100 µM (inactive)
UO-31
  GI50: > 100 µM (inactive)
SNB-78
  GI50: > 100 µM (inactive)
TK-10
  GI50: > 100 µM (inactive)
RPMI-8226
  GI50: > 100 µM (inactive)
DMS-273
  GI50: > 100 µM (inactive)
UACC-62
  GI50: > 100 µM (inactive)
HCT-116
  GI50: > 100 µM (inactive)
SK-MEL-5
  GI50: > 100 µM (inactive)
LXFL 529
  GI50: > 100 µM (inactive)
OVCAR-5
  GI50: > 100 µM (inactive)
OVCAR-8
  GI50: > 100 µM (inactive)
HCT-15
  GI50: > 100 µM

## COc1c(Br)cc(Br)c(OC)c1-c1[nH]c(Br)c(Br)c1Br
HCC 2998
  GI50: 6.76 µM (inactive)
RXF 393
  GI50: 1.36 µM (inactive)
HL-60
  GI50: 6.76 µM (inactive)
COLO 205
  GI50: 10.4 µM (inactive)
SNB-19
  GI50: 13.1 µM (inactive)
RXF 631
  GI50: 6.64 µM (inactive)
SW-620
  GI50: 7.11 µM (inactive)
A498
  GI50: 12.1 µM (inactive)
IGROV-1
  GI50: 5.71 µM (inactive)
SN12C
  GI50: 5.9 µM (inactive)
U-251
  GI50: 10.4 µM (inactive)
SK-MEL-2
  GI50: 3.01 µM (inactive)
LOX IMVI
  GI50: 11.7 µM (inactive)
KM-20L2
  GI50: 8.87 µM (inactive)
UACC-257
  GI50: 4.81 µM (inactive)
HOP-92
  GI50: 1.82 µM (inactive)
M14
  GI50: 7.16 µM (inactive)
HOP-62
  GI50: 8.22 µM (inactive)
K562
  GI50: 4.01 µM (inactive)
OVCAR-3
  GI50: 3.66 µM (inactive)
A549
  GI50: 5.04 µM (inactive)
SK-OV-3
  GI50: 13.6 µM (inactive)
EKVX
  GI50: 6.93 µM (inactive)
SK-MEL-28
  GI50: 6.65 µM (inactive)
NCI-H460
  GI50: 9.48 µM (inactive)
M19-MEL
  GI50: 10.2 µM (inactive)
OVCAR-4
  GI50: 4.28 µM (inactive)
CAKI-1
  GI50: 2.52 µM (inactive)
HT-29
  GI50: 4.17 µM (inactive)
SNB-75
  GI50: 4.45 µM (inactive)
SF-539
  GI50: 9.98 µM (inactive)
NCI-H522
  GI50: 2.18 µM (inactive)
HOP-18
  GI50: 2.54 µM (inactive)
XF498
  GI50: 2.27 µM (inactive)
DLD-1
  GI50: 5.26 µM (inactive)
KM12
  GI50: 4.48 µM (inactive)
SF-295
  GI50: 4.63 µM (inactive)
NCI-H226
  GI50: 5.7 µM (inactive)
DMS-114
  GI50: 4.8 µM (inactive)
MOLT-4
  GI50: 4.53 µM (inactive)
CCRF-CEM
  GI50: 4.34 µM (inactive)
ACHN
  GI50: 4.78 µM (inactive)
786-0
  GI50: 10.7 µM (inactive)
NCI-H23
  GI50: 2.98 µM (inactive)
Malme-3M
  GI50: 3.74 µM (inactive)
SF-268
  GI50: 3.78 µM (inactive)
UO-31
  GI50: 2.13 µM (inactive)
SNB-78
  GI50: 11.1 µM (inactive)
TK-10
  GI50: 11.4 µM (inactive)
RPMI-8226
  GI50: 3.39 µM (inactive)
DMS-273
  GI50: 6.9 µM (inactive)
UACC-62
  GI50: 6.98 µM (inactive)
HCT-116
  GI50: 3.25 µM (inactive)
SK-MEL-5
  GI50: 6.55 µM (inactive)
OVCAR-5
  GI50: 14.3 µM (inactive)
OVCAR-8
  GI50: 8.75 µM (inactive)
HCT-15
  GI50: 4.28 µM

## NCCNC(=O)c1cccc2cc3ccccc3nc12
HCC 2998
  GI50: 2.65 µM (inactive)
RXF 393
  GI50: 2.31 µM (inactive)
COLO 205
  GI50: 1.07 µM (active)
SNB-19
  GI50: 4.09 µM (inactive)
RXF 631
  GI50: 4.47 µM (inactive)
SW-620
  GI50: 1.42 µM (inactive)
A498
  GI50: 1.81 µM (inactive)
IGROV-1
  GI50: 3.48 µM (inactive)
SN12C
  GI50: 2.45 µM (inactive)
U-251
  GI50: 2.11 µM (inactive)
SK-MEL-2
  GI50: 2.47 µM (inactive)
LOX IMVI
  GI50: 1.24 µM (inactive)
KM-20L2
  GI50: 1.61 µM (inactive)
UACC-257
  GI50: 2.82 µM (inactive)
HOP-92
  GI50: 19.6 µM (inactive)
M14
  GI50: 3.53 µM (inactive)
HOP-62
  GI50: 1.86 µM (inactive)
K562
  GI50: 2.15 µM (inactive)
OVCAR-3
  GI50: 3.66 µM (inactive)
A549
  GI50: 1.27 µM (inactive)
SK-OV-3
  GI50: 4.82 µM (inactive)
EKVX
  GI50: 3.7 µM (inactive)
SK-MEL-28
  GI50: 3 µM (inactive)
M19-MEL
  GI50: 1.79 µM (inactive)
OVCAR-4
  GI50: 3.75 µM (inactive)
CAKI-1
  GI50: 3.15 µM (inactive)
HT-29
  GI50: 1.87 µM (inactive)
SNB-75
  GI50: 5.26 µM (inactive)
SF-539
  GI50: 4.35 µM (inactive)
NCI-H522
  GI50: 3.57 µM (inactive)
HOP-18
  GI50: 14.7 µM (inactive)
XF498
  GI50: 2.04 µM (inactive)
DLD-1
  GI50: 2.77 µM (inactive)
KM12
  GI50: 4.03 µM (inactive)
SF-295
  GI50: 2.94 µM (inactive)
NCI-H226
  GI50: 1.43 µM (inactive)
DMS-114
  GI50: 1.77 µM (inactive)
MOLT-4
  GI50: 0.333 µM (active)
SR
  GI50: 0.439 µM (active)
ACHN
  GI50: 1.02 µM (active)
786-0
  GI50: 7.6 µM (inactive)
NCI-H23
  GI50: 2.62 µM (inactive)
Malme-3M
  GI50: 0.495 µM (active)
SF-268
  GI50: 1.61 µM (inactive)
UO-31
  GI50: 5.26 µM (inactive)
SNB-78
  GI50: 8.63 µM (inactive)
TK-10
  GI50: 2.3 µM (inactive)
RPMI-8226
  GI50: 3.85 µM (inactive)
DMS-273
  GI50: 2.3 µM (inactive)
UACC-62
  GI50: 2.75 µM (inactive)
HCT-116
  GI50: 1.11 µM (active)
SK-MEL-5
  GI50: 2.23 µM (inactive)
LXFL 529
  GI50: 4.95 µM (inactive)
OVCAR-5
  GI50: 3.74 µM (inactive)
OVCAR-8
  GI50: 2.08 µM (inactive)
HCT-15
  GI50: 1.91 µM

— ChEMBL document CHEMBL1201862, “PubChem BioAssay data set” (2004)
